Experimental data published in patent US20110275721A1, “METHOD FOR THE PURIFICATION OF SUBSTITUTED CYCLOPENT-2-EN-1-ONE CONGENERS AND SUBSTITUTED 1,3-CYCLOPENTADIONE CONGENERS FROM A COMPLEX MIXTURE USING COUNTERCURRENT SEPARATION” (Metaproteomics, LLC, priority 2008, published 2011).

Test: Shake-flask liquid distribution ratio (Kd), Hexane:Water:Buffer of 10:9:1
Assay type: physicochemical
Conditions: THIAA Aug. 5, 2008
Method: Several shake-flask experiments were conducted to test several solvent systems and determine the liquid distribution ratio (Kd) and partition coefficient values for optimal separations. Partition coefficient values derived from shake-flask experiments are a reliable predictor of countercurrent chromatographic behavior. Kd is the concentration of the analyte in the upper phase divided by the concentration of the analyte in the lower phase and, in the alternative, may be listed as Ku/l.
General Procedure and Parameters for Shake Flask Experiments: Addition of 1 mL of the stock buffer at a known pH. Addition of the other necessary solvents to make up the system. Addition of the analyte mixture dissolved in hexane at 400 mg/mL. Final analyte concentration in the shake flask is 0.1 mg/mL. The flask was capped and mixed (by a vortex mixer) for 10 seconds. An aliquot was taken from the upper phase for HPLC analysis, and additionally a separate aliquot was taken from the lower phase for HPLC analysis from each flask. Each component was analyzed by HPLC and integrated using Shimadzu Class VP Software version 7.3 SP1.

SMILES	K Value (pH 4.9)	K Value (pH 5.5)	K Value (pH 5.6)	K Value (pH 6.0)
CC(C)CCC(=O)[C@]1(O)C(O)=C(C(=O)C(C)C)C(=O)[C@H]1CCC(C)C [TH 1, (+)-(4R,5S)-3,4-dihydroxy-2-isobutyryl-5-(3-methylbutyl)-4-(4-methylpentanoyl)cyclopent-2-en-1-one]	16.5	4.2	3.0	1.5
CC(C)CCC(=O)[C@]1(O)C(O)=C(C(=O)CC(C)C)C(=O)[C@H]1CCC(C)C [TH 5, (+)-(4R,5S)-3,4-dihydroxy-2-(3-methylbutanoyl)-5-(3-methylbutyl)-4-(4-methylpentanoyl)cyclopent-2-en-1-one]	32.8	9.5	6.6	3.3

Second part, the molecule after the results:

K Value (pH 4.9)	K Value (pH 5.5)	K Value (pH 5.6)	K Value (pH 6.0)	SMILES
55.6	16.1	11.0	5.5	CCC(C)C(=O)C1=C(O)[C@@](O)(C(=O)CCC(C)C)[C@H](CCC(C)C)C1=O (single isomer, unassigned; (+)) [TH 4]
60.3	17.8	11.4	5.5	CCC(C)C(=O)C1=C(O)C(O)(C(=O)CCC(C)C)C(CCC(C)C)C1=O (stereo not drawn) [TH 3, trans tetra ad-isoalpha acid]
10.8	2.5	1.8	0.9	CC(C)CCC(=O)[C@@]1(O)C(O)=C(C(=O)C(C)C)C(=O)[C@H]1CCC(C)C [TH 2, (−)-(4S,5S)-3,4-dihydroxy-2-isobutyryl-5-(3-methylbutyl)-4-(4-methylpentanoyl)cyclopent-2-en-1-one]
